A melting point compilation (Tetko et al.; mined from patent text by program, amines drawn as free bases though some values may be those of a salt)

Compound `Cc1ccccc1Sc1c(O)c2ccc(Cl)cc2[nH]c1=O` has a melting point of 296 to 299 °C. With `COc1ccc(CN(C)CCCc2ccc(NC(=O)c3cccc4c(=O)c5ccccc5[nH]c34)cc2)cc1` the melting point was 155 °C. Work on `CC(=O)c1nc(Cl)ccc1N` yielded a melting point of 108 to 110 °C. Work on `OCCNC(=S)NC(Cc1cccs1)c1ccccc1` (configuration not stated) yielded a melting point of 109 to 112 °C. In the case of `CS(=O)(=O)c1ccc(-c2cnn(Cc3ccccc3)c(=O)c2Cc2ccc(F)cc2)cc1`, the melting point is reported as 186 to 189 °C. With `CCC(=O)C(=C1NCCCS1)[N+](=O)[O-]` the melting point was 77.5 to 79.5 °C. With `Cc1cc(F)cnc1Cl` the melting point was 38 to 40 °C. `CCOC(=O)C(=NO)c1cccnc1` gave a melting point of 137 to 138 °C. For `O=c1c(NCCCBr)c(OC2CCCCC2)c1=O`, the melting point was 68 to 70 °C. Work on `CCOC(=O)CCNC(=O)C(Cc1ccc(-c2ccccc2)cc1)N(CP(=O)(O)O)C(OC(=O)CC)C(C)C` (configuration not stated) yielded a melting point of 154 to 158 °C. `COc1cc(C(=O)O)c(-c2cc3cc(O)ccc3[nH]2)cc1OC` gave a melting point of 160 °C. In the case of `C=CCn1c(=O)c(OC)nn(-c2cccc(NC(C)=O)c2)c1=O`, the melting point is reported as 72 to 73 °C. Compound `Nc1nc(N)c2cc(CCc3ccc(C(=O)N[C@@H](CCC(=O)O)C(=O)O)cc3)cnc2n1` has a melting point of over 250 °C. `CNc1c([N+](=O)[O-])cnc2ccccc12` gave a melting point of 168 to 170 °C. Work on `Cc1cc(N2N=CCNC2=O)cc(Cl)c1Cc1ccc(Cl)cc1` yielded a melting point of 209 to 210 °C. Compound `CCN(CC)C(=O)c1ccc2ccccc2c1-c1ccccc1F` has a melting point of 137 to 140 °C. `Oc1ccc2ccccc2c1N=Nc1ccc2[nH]nnc2c1` gave a melting point of 250 °C. `CC(=O)Nc1cccc2c1CCNC2=O` showed a melting point of 244 to 246 °C. `CCn1ncc(C(=S)c2ccc3c(c2C)/C(=N/OC)CCS3)c1O` showed a melting point of 92 to 97 °C. With `CCC1(CC)OC(c2ccc(S(C)(=O)=O)cc2)=C(c2ccc(OC)c(F)c2)C1=O` the melting point was 183 to 184 °C. Work on `O=c1[nH]c2ccccc2n1CCN1CCN(C(c2ccccc2)c2ccccc2)CC1` yielded a melting point of 218 °C. For `CC(C)CCCC(C)C1CCC2C3C=CC4=CC(O)CC(O)C4(C)C3CCC12C` (configuration not stated), the melting point was 120 to 121 °C. Work on `O=C(NO)c1ccc(C(=O)NOCC2CCc3ccccc3C2)cc1` (configuration not stated) yielded a melting point of 184 to 186 °C. `CCOC(=O)C1(C)Sc2ccccc2NC1=O` (configuration not stated) showed a melting point of 109 to 111 °C. `CC(=O)Oc1ccc(N)cc1C(=O)O` gave a melting point of 133 to 136 °C. `Cn1cnc2c(N(Cc3ccccc3)Cc3ccccc3)nc(Cl)nc21` gave a melting point of 144 to 146 °C. In the case of `CCCCc1ncc(CC(=O)N[C@@H](Cc2ccccc2)C(=O)O)n1Cc1ccccc1Cl`, the melting point is reported as 168 to 170 °C. `CC(C)(C)OC(=O)NC(C)(C)c1ccc(-c2nc(Nc3ccc(OCCO)cc3)ncc2C#N)cc1` gave a melting point of 126 to 127 °C. Work on `CC(C)CC(NC(=O)c1ccc2c(N)cccc2n1)C(=O)NCC#N` (configuration not stated) yielded a melting point of 190 to 194 °C. For `O=C(O)c1ccc(NCCOc2ccc3ccccc3c2)cc1`, the melting point was 208 to 211 °C. Work on `Cc1nc2ccccc2nc1Oc1ccc(O)cc1` yielded a melting point of 175 to 178 °C. With `CCC1(CCO)OCCc2c1[nH]c1c(C)cccc21` (configuration not stated) the melting point was 68 °C. `CC1(O)C=CC2C3CCC4=CC(=O)CCC4C3C(c3ccc(-c4cccnc4)cc3)CC21C` (configuration not stated) showed a melting point of 159 °C. Work on `Nc1nc(N)c(CCCN(C(=O)C(F)(F)F)c2ccc(C(=O)O)cc2)c(=O)[nH]1` yielded a melting point of 229 to 230 °C. `CCN(CC)c1nc(-c2ccc(OC)cc2)nc2sc(C#N)c(C)c12` gave a melting point of 154 to 156 °C. In the case of `CCCCCN1C(=O)C(NC(=O)c2ccc(Cl)c(Cl)c2)c2ccccc21` (configuration not stated), the melting point is reported as 125 to 126 °C. `CCCNC(=O)N1CCc2cc(S(=O)(=O)n3cc(-c4ccccc4)[nH]c3=O)ccc21` showed a melting point of 165 to 167 °C. `Cc1nc(C=CNC(=O)c2cccc(C(F)(F)F)c2)n[nH]1` showed a melting point of 153 to 154 °C. For `CC(=O)OC1CSC(Oc2cncc(-c3ccc(OC(C)C)c(F)c3)c2)C(OC(C)=O)C1OC(C)=O` (configuration not stated), the melting point was 65 °C. With `NC(=O)N1c2ccccc2C(Br)C(Br)c2ccccc21` (configuration not stated) the melting point was 144 °C. `Cc1cc(-c2ccc(C(F)(F)F)cc2)cnc1N=CN(C)C` showed a melting point of 74 °C. For `CCOC(=O)c1cn(-c2cccc(Oc3ccc(Cl)cc3)c2)cn1`, the melting point was 112 to 113 °C. `COc1ccc(N2CCN(C(=O)C(c3ccccc3)n3cnc4[nH]ncc4c3=S)CC2)cc1` (configuration not stated) showed a melting point of 114 to 118 °C. `O=c1cc[nH]c2nc(-c3ccncc3)ncc12` showed a melting point of over 350 °C. Work on `Cc1c2c(cc3c(=O)c4c(F)cccc4oc13)CC(C(=O)O)O2` (configuration not stated) yielded a melting point of 292 to 295 °C. Work on `CC/C(=C\CCC(O)(CC)CC)c1csc(COc2ccc(CO)c(CO)c2)c1` yielded a melting point of 73 to 74 °C. For `Cc1ccccc1C(=O)CCc1c(C(=O)N2CCCC2)cc2c(nc(C)n2C)c1O`, the melting point was 216 to 217 °C. Compound `O=c1ccc2c(CO)nccc2[nH]1` has a melting point of 294 to 300 °C. With `Cc1cc(-c2cccc(C(=O)CC(=O)Nc3cc(-c4ccccc4F)ccc3NC(=O)OC(C)(C)C)c2)on1` the melting point was 158 to 160 °C. Compound `Cc1ccc(C)c(COc2ccc(N)nn2)c1` has a melting point of 109 to 111 °C. In the case of `c1csc(-c2nc(COc3ccc(CCCCn4ccnc4)cc3)co2)c1`, the melting point is reported as 106 to 107 °C. `O=C(NC(=O)c1ccc([N+](=O)[O-])cc1Cl)Nc1ccc(Cl)c(Cl)c1` showed a melting point of 280 °C.
